{"source": "patent US20030095982A1", "about": "“Fraction of Cordyceps sinensis and method of isolation thereof” (priority 2001, published 2003)", "key": {"[1]": {"tested_on": "ovalbumin (OA) induced bronchial hyperresponsiveness", "test": "Bronchoalveolar lavage cell counts, OA model in BNR", "format": "in vivo, brown Norway rats (BNR)", "procedure": "After completion of the pulmonary function tests, BAL was performed using 10 mL normal saline twice (total 20 mL) for BNR or guinea pig. The BAL fluid was collected into plastic flasks containig 1,500 units of heparin and then strained through 1 layer of surgical gauze and centrifuged at 500 g for 5 min. The cell pellet was washed 3 times with sterile saline solution and resuspended in RPMI-1640. A small portion was taken for evaluation of cell number and viability, as assessed by trypan blue exclusion.\nDifferential counts were obtained using a cytocentrifuge preparation (Cytospin; Shandon Southern Instruments, Sewickley, Pa.) stained with Liu's stain (modified May-Giemsa stain)."}, "[2]": {"tested_on": "ovalbumin (OA) induced bronchial hyperresponsiveness", "test": "Histological examination of lung tissue in asthma model", "format": "in vivo, brown Norway rats (BNR)", "settings": "prophylactic and therapeutic treatment", "procedure": "After BAL, each animal's chest was opened and the lungs were removed. The trachea and right lower lobe was fixed in 10% formaldehyde, dehydrated by different concentrations of alcohol, then embedded in paraffin, and cut into 4 μm thicknesses, stained with haematoxylin and eosin, and examined by light microscope. Histologic specimens (n=6 per each time point) were prepared. The trachea and each lobe were fixed in 10% formaldehyde, dehydrated by different concentrations of alcohol, then embedded in paraffin, and cut into 4 μm thicknesses; stained with haematosylin and eosin, and examined by light microscope for evaluation of the severity of inflammation. Each trachea and lung section was blindly assigned an inflammation score by two pathologists as follows; 1=rare or occasional inflammation cells scattered through the lung or trachea; 3=abundant inflammatory cells scattered through the lung or trachea; 2=inflammatory cells between the levels of 1 and 3. The total inflammation score for each animal was calculated as mean of the scores for 5 lung sections and trachea."}, "[3]": {"tested_on": "ovalbumin (OA) induced bronchial hyperresponsiveness", "test": "Pulmonary function test, OA sensitized and challenged BALBc mice", "format": "in vivo", "procedure": "In the nonanesthetized condition, 24 hours after airway challenge by 3 mL 1% OA aerosol, pulmonary function testing (PET) was measured by WBP at baseline and after methacholine (Mch) inhalation challenge. Four hours after PET in a nonanesthetized condition, all animals were anesthetized with sodium pentobarbitone (50 mg/kg intraperitoneally). Jugular vein cannulation (PE-10 polyethylene tube filled with heaprin, 1000 iu/mL in normal saline) and tracheostomy were performed. The animals were put in a body box (anesthetized small animal body box, Buxco, USA) in a supine position. Gallamine triethiodide (4 mg/kg) was injected intravenously to induce paralysis and inhibit spontaneous breathing. A small animal ventilator set at a tidal volume 6 mL/kg and a respiratory rate of 120 times/minute was used to ventilate the animals by room air. All animals were stable without spontaneous breathing 5 minutes after gallamine was given. Pulmonary function tests, including flow volume loop, peak airway opening pressure (PaO), and gas flow to calculate total dynamic lung compliance, were examined at baseline. Thereafter, 25, 50, 75 and 100 μg/kg of acetylcholine were given intravenously at 30 minute intervals. Pulmonary function test were done 5 seconds after each dose of acetylcholine. Before each dose of acetylcholine the flow volume loop returned to baseline.\nThe PaO was measured by a Gould pressure transducer at the tracheostomy. PaO was defined as opening airway pressure during tidal breathing when a small animal ventilator was used (tidal volume 6 mL/kg, respiratory rate 120 times/minute). Respiratory flow was measured by a DP-45-14 differential pressure transducer.\nFor the maximal forced expiratory maneuver (MFEM), the lungs were inflated to total lung capacity (TLC, lung volume at PaO =35 cm H2O) 3 times; the inflation was regulated by a solenoid valve. At peak volume during the third inflation, the inflation valve was shut off and the other solenoid valve was used immediately for deflation. The deflation valve was connected to a 20 liter container with a pressure of −40 cm H2O (subatmospheric). The negative pressure produced maximal expiratory flow (Vmax). The changes in flow, volume and PaO were recorded by a 7P1, 7P10 preamplifier (Grass instrument Company, USA) from the body box and flow volume was stored in an oscilloscope (Hitachi Den Shi America Ltd, New York, USA). The parameters of the flow volume loop (FV loop), including peak flow (the maximal flow rate of the FV loop), MFEF75% (the flow rate at 75% TLC), MFEF50% (the flow rate at 50% TLC) and MFEF25% (the flow rate at 25% TLC) were recorded.\nPD20MFEF50%Ach is the dose of acetylcholine required to produce a decrease in MFEF50% of 20% from baseline. PD20MFEF25%Ach is the dose required to produce a decrease in MFEF25% of 20% from baseline. PD50PaOAch is the dose required to produce an increase in PaO of 50% from baseline. PD50CdynAch is the dose required to produce a decrease in Cdyn of 50% from baseline. PD50RawAch is the dose required to produce an increase in Raw of 50% from baseline after acetylcholine was given.\nTLC and residual volume (RV) were defined as the gas volume in the lungs at airway pressures of +30 cm H2O (TLC) and −10 cm H2O (RV) respectively. The lungs were deflated to RV by connecting one port of the respiratory valve to a 4-liter reservoir at −10 cm H2O; the valve was then turned, and the lungs were inflated from a syringe to TLC. The volume necessary to inflate the lungs from −10 to 30 cm H2O was read from the syringe and was recorded as the vital capacity (VC). A specific measurement sequence was used throughout the study. VC was determined three times and then TLC was measured three times each. The average valve of the three measurements was reported.\nLung volumes (such as TLC and FRC) were also measured using the gas (Neon) dilution principle. […]"}, "[4]": {"settings": "BAL fluid, 4 mg/Kg intraperitoneally 30 minutes before OA inhalation provocation"}, "[5]": {"settings": "BALBc mice, baseline, 4 mg/Kg intraperitoneally 30 minutes before OA inhalation provocation, mean±SD"}}, "data": [{"molecule": "CC(C)[C@@H](C)C=C[C@@H](C)[C@H]1CC[C@H]2C3=C[C@@H](O)[C@@]4(O)C[C@@H](O)CC[C@]4(C)[C@H]3CC[C@]12C", "note": "[F8, (24R)-ergosta-7,22-diene-3β, 5α, 6β,-triol]", "values": [{"measurement": "Eosinophil Cell count", "setting": "[1]; [4]", "result": "4.26 ± 0.5 (×10^4)/mL"}, {"measurement": "Eosinophil Percentage of total cell count (%)", "setting": "[1]; [4]", "result": "28.8 ± 4.5", "unit": "%"}, {"measurement": "Lymphocyte Cell count", "setting": "[1]; [4]", "result": "3.37 ± 0.51 (×10^4)/mL"}, {"measurement": "Lymphocyte Percentage of total cell count (%)", "setting": "[1]; [4]", "result": "22.8 ± 4.5", "unit": "%"}, {"measurement": "Macrophage Cell count", "setting": "[1]; [4]", "result": "6.85 ± 0.64 (×10^4)/mL"}, {"measurement": "Macrophage Percentage of total cell count (%)", "setting": "[1]; [4]", "result": "46.3 ± 5.5", "unit": "%"}, {"measurement": "Neutrophil Cell count", "setting": "[1]; [4]", "result": "0.31 ± 0.4 (×10^4)/mL"}, {"measurement": "Neutrophil Percentage of total cell count (%)", "setting": "[1]; [4]", "result": "2.1 ± 0.5", "unit": "%"}, {"measurement": "Total cell count", "setting": "[1]; [4]", "result": "14.8 ± 3.2 (×10^4)/mL"}, {"measurement": "BAL total cell counts, eosinophils and lymphocytes versus group II", "setting": "[1]; treatment study (administered after OA inhalation provocation)", "result": "Group II had higher total cell counts than the other 2 groups"}, {"measurement": "pulmonary histological change", "setting": "[2]", "result": "improve pulmonary histological change"}, {"measurement": "percentage of baseline MFEF 50% TLC, Ach dose response", "setting": "[3]; BALB/c mice, pretreated before OA inhalation provocation (group I) vs OA-treated (group II), Ach doses higher than 25 μg/kg", "result": "group II was significantly lower then group I"}, {"measurement": "Cdyn (total dynamic lung compliance)", "setting": "[3]; [5]", "result": "0.42 ± 0.04", "unit": "mL/cmH2O"}, {"measurement": "FEV 0.1", "setting": "[3]; [5]", "result": "1.26 ± 0.17", "unit": "mL"}, {"measurement": "MFEF 25%", "setting": "[3]; [5]", "result": "6.06 ± 1.59", "unit": "mL/s"}, {"measurement": "MFEF 50%", "setting": "[3]; [5]", "result": "14.58 ± 1.31", "unit": "mL/s"}, {"measurement": "MFEF 75%", "setting": "[3]; [5]", "result": "19.94 ± 2.53", "unit": "mL/s"}, {"measurement": "PaO (airway opening pressure at tidal breathing)", "setting": "[3]; [5]", "result": "3.8 ± 0.5", "unit": "cmH2O"}, {"measurement": "Peak flow", "setting": "[3]; [5]", "result": "22.64 ± 2.07", "unit": "mL/s"}, {"measurement": "TLC", "setting": "[3]; [5]", "result": "1.68 ± 0.25", "unit": "mL"}, {"measurement": "Vital capacity", "setting": "[3]; [5]", "result": "1.29 ± 0.11", "unit": "mL"}, {"measurement": "baseline flow volume loop parameters (MFEF 50%TLC, MFEF 25%TLC, Cdyn) versus group II", "setting": "[3]; mice, treatment study (administered after OA challenge), p<0.05", "result": "lower in group II when compared with group I and III"}]}]}
